Laboratory results taken from patent US20240318218A1 (The Trustees of Columbia University in The City of New York, priority 2023, published 2024).

Molecular target: T1, human NADK (ATP-NAD+ kinase), recombinant, C-terminal 6x-histidine tag (Homo sapiens, UniProt O95544)
T1 construct: 6x-histidine (C); made in house; host or cells: E. coli BL21(DE3)
T1 sequence (O95544 1-446): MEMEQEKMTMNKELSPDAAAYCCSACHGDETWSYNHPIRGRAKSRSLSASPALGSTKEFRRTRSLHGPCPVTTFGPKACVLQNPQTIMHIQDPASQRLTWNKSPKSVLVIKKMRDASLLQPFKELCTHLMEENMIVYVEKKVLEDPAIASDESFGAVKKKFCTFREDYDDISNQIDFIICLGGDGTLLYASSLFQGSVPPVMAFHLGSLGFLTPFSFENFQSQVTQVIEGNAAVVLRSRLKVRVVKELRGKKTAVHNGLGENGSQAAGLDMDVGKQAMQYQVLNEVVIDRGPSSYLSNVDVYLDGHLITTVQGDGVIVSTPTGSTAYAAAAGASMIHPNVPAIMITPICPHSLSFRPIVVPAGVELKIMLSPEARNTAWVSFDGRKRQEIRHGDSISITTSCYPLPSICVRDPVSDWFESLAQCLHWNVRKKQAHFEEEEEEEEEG
Assay: Affinity of human NADK for NAD+ compared with pigeon, duck and cat NADK
Format: biochemical
Conditions: human NADK relative to pigeon
Protocol: Recombinantly-expressed NADKs were explored for their reversible activities. It was hypothesized that the reversibility of the pigeon enzyme would enable compensation for the high picolinic acid […] (PC) activity present in pigeon livers, which inhibits NAD^+ biosynthesis from dietary tryptophan. […] It was determined that human NADK has an affinity for NAD^+ that is about 600 times higher than the pigeon, duck and cat isoforms. Without wishing to be bound by theory, NAD^+ serves as a product inhibitor for the reverse human NADK activity, which accounts for the observed irreversible behavior. While each of the NADKs explored were “reversible,” the reverse activity of the human enzyme is impeded via product inhibition. […]
Referring now to FIGS. 3A-3B, initial rate kinetic experiments were performed with pigeon, duck, cat, and human NADK enzymes in both the forward and reverse directions. […] In FIG. 3B, the production of ATP was detected in a coupled reaction with firefly luciferase where ATP was converted to light, the relative luminescence (RLU) was monitored, and a standard curve was used to calculate the ATP concentration.

Compound: NC(=O)c1ccc[n+]([C@@H]2O[C@H](COP(=O)([O-])OP(=O)(O)OC[C@H]3O[C@@H](n4cnc5c(N)ncnc54)[C@H](O)[C@@H]3O)[C@@H](O)[C@H]2O)c1 [NAD]
- affinity for NAD^+, times higher than the pigeon, duck and cat isoforms: about 600 times
